Measurements: ChEMBL document CHEMBL1201862, “PubChem BioAssay data set” (2004)
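Five compound concentrations were applied to cells in 96-well plates for 48 hours; endpoints were derived by simple linear interpolation of the resulting dose-response curve. GI50 = concentration required for 50% inhibition of growth.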 Activity calls are given as the source filed them. No stated cut-off is given here; in the data, active = GI50 up to about 1.1 µM and inactive = higher. Where a SMILES comes first, the peptide text is derived from it. The star is where a group is joined. Cbz = O=C(OCc1ccccc1)*

Columns and labels:
Test in all cases: growth of human tumour cells (NCI), 48 h
786-0 = test system: 786-0
A498 = test system: A498
DU-145 = test system: DU-145
HOP-62 = test system: HOP-62
LOX IMVI = test system: LOX IMVI
M14 = test system: M14
MDA-MB-435 = test system: MDA-MB-435
NCI-H23 = test system: NCI-H23
NCI-H522 = test system: NCI-H522
NCI/ADR-RES = test system: NCI/ADR-RES
OVCAR-4 = test system: OVCAR-4
SF-539 = test system: SF-539
SK-MEL-28 = test system: SK-MEL-28
SK-OV-3 = test system: SK-OV-3
SN12C = test system: SN12C
UACC-62 = test system: UACC-62
HCC 2998 = test system: HCC 2998
PC-3 = test system: PC-3
U-251 = test system: U-251

Measured: GI50

ON(CCc1ccncc1)Cc1ccccc1
inactive: 786-0 > 100 µM | A498 > 100 µM | DU-145 > 100 µM | HOP-62 > 100 µM | LOX IMVI > 100 µM | M14 > 100 µM | MDA-MB-435 > 100 µM | NCI-H23 > 100 µM | NCI-H522 > 100 µM | NCI/ADR-RES > 100 µM | OVCAR-4 > 100 µM | SF-539 > 100 µM | SK-MEL-28 > 100 µM | SK-OV-3 > 100 µM | SN12C > 100 µM | UACC-62 > 100 µM

Cc1ccc(O)c(-c2cscn2)c1
inactive: 786-0 33.2 µM | A498 15.3 µM | HCC 2998 24.7 µM | HOP-62 33.3 µM | LOX IMVI 27.7 µM | M14 54.2 µM | MDA-MB-435 52.6 µM | NCI-H23 39.4 µM | NCI/ADR-RES 51.9 µM | OVCAR-4 54 µM | PC-3 39.8 µM | SF-539 30.8 µM | SK-OV-3 32.6 µM | SN12C 35.2 µM | UACC-62 55 µM

CC12CC3OC(=O)C1COC14OC5(C2C1=O)C(O)(CCC1C4CC(O)C2(O)CC=CC(=O)C12C)C(=O)OC35C (configuration not stated)
inactive: 786-0 > 100 µM | DU-145 > 100 µM | HCC 2998 > 100 µM | LOX IMVI > 100 µM | M14 > 100 µM | MDA-MB-435 68.4 µM | NCI-H23 > 100 µM | NCI-H522 > 100 µM | NCI/ADR-RES > 100 µM | OVCAR-4 > 100 µM | PC-3 > 100 µM | SF-539 > 100 µM | SK-MEL-28 > 100 µM | SK-OV-3 > 100 µM | SN12C > 100 µM | U-251 > 100 µM | UACC-62 > 100 µM

O=P1(O)c2ccccc2CCc2ccccc21
inactive: 786-0 > 100 µM | DU-145 > 100 µM | HCC 2998 > 100 µM | HOP-62 > 100 µM | LOX IMVI > 100 µM | M14 > 100 µM | MDA-MB-435 > 100 µM | NCI-H23 > 100 µM | NCI-H522 > 100 µM | PC-3 > 100 µM | SF-539 > 100 µM | SK-MEL-28 > 100 µM | SK-OV-3 > 100 µM | SN12C > 100 µM | UACC-62 > 100 µM

CN/C(=N\N)NS(=O)(=O)c1cc(C)c(Cl)cc1S
inactive: 786-0 27.3 µM | DU-145 > 100 µM | HCC 2998 87.7 µM | HOP-62 > 100 µM | LOX IMVI 96.4 µM | M14 54.5 µM | MDA-MB-435 43.5 µM | NCI-H522 25.2 µM | NCI/ADR-RES > 100 µM | OVCAR-4 > 100 µM | PC-3 > 100 µM | SF-539 > 100 µM | SK-MEL-28 > 100 µM | SK-OV-3 > 100 µM | SN12C > 100 µM | U-251 64.1 µM | UACC-62 53.7 µM

COC(=O)Cc1c(-c2c(CC(=O)OC)c3ccccc3n2C2OC(COC3OC(COC(C)=O)C(OC(C)=O)C(OC(C)=O)C3OC(C)=O)C(O)C(O)C2O)[nH]c2ccccc12 (configuration not stated)
inactive: 786-0 37 µM | A498 57.8 µM | DU-145 > 100 µM | HOP-62 23 µM | LOX IMVI > 100 µM | M14 > 100 µM | MDA-MB-435 > 100 µM | NCI-H23 > 100 µM | PC-3 > 100 µM | SF-539 51.5 µM | SK-MEL-28 > 100 µM | SK-OV-3 74.8 µM | SN12C > 100 µM | U-251 44.3 µM | UACC-62 > 100 µM

C=C(C)C1CC[C@@](C)(O)[C@H](C#N)C1 (some centres not stated)
inactive: 786-0 > 100 µM | A498 > 100 µM | DU-145 > 100 µM | HCC 2998 > 100 µM | HOP-62 > 100 µM | LOX IMVI > 100 µM | M14 > 100 µM | MDA-MB-435 > 100 µM | NCI-H23 > 100 µM | NCI-H522 > 100 µM | OVCAR-4 > 100 µM | PC-3 71 µM | SF-539 > 100 µM | SK-MEL-28 > 100 µM | SK-OV-3 > 100 µM | SN12C > 100 µM | U-251 > 100 µM | UACC-62 > 100 µM

CCCCOC1CC2(c3ccc(OC)cc3)C(=O)c3ccccc3N2O1 (configuration not stated)
inactive: 786-0 88.1 µM | A498 > 10 µM | LOX IMVI > 10 µM | M14 46.1 µM | NCI-H522 21.3 µM | SF-539 90.6 µM | SK-OV-3 > 100 µM | SN12C > 10 µM | U-251 > 10 µM | UACC-62 > 10 µM

N#C[C@H]1C(=O)C(c2nc3ccccc3[nH]2)S[C@H]1c1ccccc1 (some centres not stated)
inactive: 786-0 19.1 µM | A498 22.1 µM | DU-145 45.1 µM | HCC 2998 50 µM | LOX IMVI 42 µM | M14 33.3 µM | MDA-MB-435 35 µM | NCI-H23 27.5 µM | NCI-H522 21.2 µM | NCI/ADR-RES 30.9 µM | OVCAR-4 34.2 µM | SK-MEL-28 54.8 µM | SK-OV-3 47.1 µM | SN12C 20 µM | U-251 22.6 µM | UACC-62 15.3 µM

Cc1cc(S(=O)(=O)NC2=Nc3cccc4cccc(c34)N2)c(S)cc1Cl
inactive: 786-0 84.5 µM | DU-145 > 100 µM | HCC 2998 > 100 µM | LOX IMVI 70.5 µM | M14 65.2 µM | MDA-MB-435 83.4 µM | NCI-H522 > 100 µM | NCI/ADR-RES > 100 µM | OVCAR-4 85.9 µM | PC-3 65.3 µM | SF-539 > 100 µM | SK-MEL-28 > 100 µM | U-251 50 µM | UACC-62 > 100 µM

Cc1[nH]n(C2=NCCN2)c(=O)c1C
inactive: 786-0 > 100 µM | A498 > 100 µM | HOP-62 > 100 µM | LOX IMVI > 100 µM | M14 > 100 µM | MDA-MB-435 > 100 µM | NCI-H23 > 100 µM | NCI-H522 > 100 µM | NCI/ADR-RES > 100 µM | OVCAR-4 > 100 µM | PC-3 > 100 µM | SF-539 > 100 µM | SK-OV-3 > 100 µM | U-251 > 100 µM | UACC-62 > 100 µM

CCOC(=O)CCC(NC(=O)C(CC(=O)OC)NC(=O)OCc1ccccc1)C(=O)NC(CC(=O)OC)C(=O)NC(CCC(=O)OCC)C(=O)NC(CC(=O)OC)C(=O)NC(CCC(=O)OCC)C(=O)NC(CC(=O)OCC)C(=O)OCC (configuration not stated) (Cbz-D(OMe)E(OEt)D(OMe)E(OEt)D(OMe)E(OEt)D(OEt)-OEt; configuration not given here)
inactive: 786-0 > 100 µM | A498 98.9 µM | DU-145 > 100 µM | HCC 2998 > 100 µM | HOP-62 > 100 µM | LOX IMVI > 100 µM | MDA-MB-435 > 100 µM | NCI-H23 > 100 µM | NCI-H522 > 100 µM | OVCAR-4 > 100 µM | PC-3 > 100 µM | SN12C > 100 µM | U-251 > 100 µM | UACC-62 > 100 µM
